Measured values from patent publication US3984393A, “Aminoglycoside antibiotics” (The Upjohn Company, priority 1975, dated 1976).
Values after ≈ are worked out from the molar mass of the structure shown.

How the values were obtained:
[1] = system: S. typhi TG-3; experiment: standard microplate test in BHI Agar (MIC), S. typhi TG-3; format: cell-based; settings: Salmonella enterica, 20 h, read-out: Minimum Inhibitory Concentration
Procedure: (§1) Compounds were also tested in a standard microplate test in Brain Heart Infusion (BHI) Agar, at a concentration of 1 mg/ml. Incubation is at 37° and end points are read at 20 hours. Brain Heart Infusion Agar (supplied by Difco Laboratories, Detroit, Michigan, U.S.A.) has the following composition:
(§2) Compounds (7β), (7α) and (9) were tested again along with compounds (11) and (14β) against a neamine control using the same conditions as given above.

[2] = system: E. coli UC 51; experiment: agar diffusion (standard agar disc plate) assay, E. coli UC 51; format: cell-based, Escherichia coli; set-up: unit not given here
Procedure: (§3) The novel intermediates, disclosed herein, are useful to make novel aminoglycoside antibiotics. These novel aminoglycoside antibiotics are antibacterially active, and, thus, they can be used in various environments to eradicate or control sensitive bacteria. Following are in vitro antibacterial test results for representative compounds of the subject invention. The results were obtained with a standard disc plate assay using 12.5 mm paper discs.
(§4) Compound (14β) was also tested against a series of bacteria on a standard agar disc plate assay, as described above.

[3] = system: B. cereus UC 3145; experiment: agar diffusion (standard agar disc plate) assay, B. cereus UC 3145; format: cell-based, Bacillus cereus; set-up: unit: mm
Procedure: as §3, §4

[4] = system: S. aureus UC 76; experiment: agar diffusion (standard agar disc plate) assay, S. aureus UC 76; format: cell-based, Staphylococcus aureus; set-up: unit not given here
Procedure: as §3, §4

[5] = system: D. pneumoniae UC 41; experiment: standard microplate test in BHI Agar (MIC), D. pneumoniae UC 41; format: cell-based; settings: Streptococcus pneumoniae, UC41, 20 h, D. pneumoniae UC 41; retest table, group (7β), (14β), neamine control; read-out: Minimum Inhibitory Concentration
Procedure: as §1, §2

[6] = system: P. vulgaris UC 93; experiment: standard microplate test in BHI Agar (MIC), P. vulgaris UC 93; format: cell-based; settings: Proteus vulgaris, UC93, 20 h, P. vulgaris UC 93; retest table, group (7β), (14β), neamine control; read-out: Minimum Inhibitory Concentration
Procedure: as §1, §2

[7] = system: B. subtilis UC 564; experiment: agar diffusion (standard agar disc plate) assay, B. subtilis UC 564; format: cell-based, Bacillus subtilis; set-up: unit: mm
Procedure: as §3, §4

[8] = system: S. lutea UC 130; experiment: agar diffusion (standard agar disc plate) assay, S. lutea UC 130; format: cell-based; set-up: unit: mm
Procedure: as §3, §4

[9] = system: P. vulgaris UC 93; experiment: agar diffusion (standard agar disc plate) assay, p. vulgaris UC 93; format: cell-based; set-up: unit: mm
Procedure: as §3, §4

[10] = system: K. pneumoniae UC 57; experiment: agar diffusion (standard agar disc plate) assay, K. pneumoniae UC 57; format: cell-based; set-up: unit: mm
Procedure: as §3, §4

[11] = system: P. mirabilis A-63; experiment: standard microplate test in BHI Agar (MIC), P. mirabilis A-63; format: cell-based; settings: Proteus mirabilis, A63, 20 h; P. mirabilis A-63; retest table, group (7β), (14β), neamine control; read-out: Minimum Inhibitory Concentration
Procedure: as §1, §2

[12] = system: St. faecalis UC 694; experiment: standard microplate test in BHI Agar (MIC), St. faecalis UC 694; format: cell-based; settings: Enterococcus faecalis, UC694, 20 h, S. faecalis UC 694; retest table, group (7β), (14β), neamine control; read-out: Minimum Inhibitory Concentration
Procedure: as §1, §2

[13] = system: S. aureus UC 76; experiment: standard microplate test in BHI Agar (MIC), S. aureus UC 76; format: cell-based, Staphylococcus aureus
Procedure: as §1, §2

[14] = system: K. pneumoniae UC 58; experiment: standard microplate test in BHI Agar (MIC), K. pneumoniae UC 58; format: cell-based; settings: Klebsiella pneumoniae, UC58, 20 h; K. pneumoniae UC 58; retest table, group (7β), (14β), neamine control; read-out: Minimum Inhibitory Concentration
Procedure: as §1, §2

[15] = system: P. morgani UC 3186; experiment: standard microplate test in BHI Agar (MIC), P. morgani UC 3186; format: cell-based; settings: 20 h; P. morgani UC 3186; retest table, group (7β), (14β), neamine control; read-out: Minimum Inhibitory Concentration
Procedure: as §1, §2

[16] = system: P. rettgeri UC 339; experiment: standard microplate test in BHI Agar (MIC), P. rettgeri UC 339; format: cell-based; settings: Providencia rettgeri, UC339, 20 h; P. rettgeri UC 339; retest table, group (7β), (14β), neamine control; read-out: Minimum Inhibitory Concentration
Procedure: as §1, §2

[17] = system: B. cereus; experiment: standard disc plate assay, 12.5 mm paper discs (zone of inhibition), B. cereus; format: cell-based, Bacillus cereus; settings: conclusion in words from the above results
Source text: as §3

[18] = system: Ps. aeruginosa UC 95; experiment: agar diffusion (standard agar disc plate) assay, Ps. aeruginosa UC 95; format: cell-based
Procedure: as §3, §4

[19] = system: S. flexneri UC 143; experiment: standard microplate test in BHI Agar (MIC), S. flexneri UC 143; format: cell-based; settings: Shigella flexneri, UC143, 20 h, retest table, group (7β), (14β), neamine control, read-out: Minimum Inhibitory Concentration
Procedure: as §1, §2

[20] = system: E. coli UC 45; experiment: standard microplate test in BHI Agar (MIC), E. coli UC 45; format: cell-based; settings: Escherichia coli, UC45, 20 h, E. coli UC 45; retest table, group (7β), (14β), neamine control; read-out: Minimum Inhibitory Concentration
Procedure: as §1, §2

[21] = system: S. hemolyticus UC 152; experiment: standard microplate test in BHI Agar (MIC), S. hemolyticus UC 152; format: cell-based, Streptococcus hemolyticus; settings: Streptococcus pyogenes, UC152, 20 h; S. hemolyticus UC 152; retest table, group (7β), (14β), neamine control; read-out: Minimum Inhibitory Concentration
Procedure: as §1, §2

[22] = system: Ps. aeruginosa UC 95; experiment: standard microplate test in BHI Agar (MIC), Ps. aeruginosa UC 95; format: cell-based; settings: Pseudomonas aeruginosa, UC95, 20 h, Ps. aeruginosa UC 95; retest table, group (7β), (14β), neamine control; read-out: Minimum Inhibitory Concentration
Procedure: as §1, §2

[23] = system: S. marcescens UC 131; experiment: standard microplate test in BHI Agar (MIC), S. marcescens UC 131; format: cell-based; settings: Serratia marcescens, UC131, 20 h; S. marcescens UC 131; retest table, group (7β), (14β), neamine control; read-out: Minimum Inhibitory Concentration
Procedure: as §1, §2

[24] = system: B. subtilis; experiment: standard disc plate assay, 12.5 mm paper discs (zone of inhibition), B. subtilis; format: cell-based, Bacillus subtilis; settings: conclusion in words from the above results
Source text: as §3

NC[C@H]1O[C@H](O[C@H]2[C@H](O)[C@@H](O)[C@H](N)C[C@@H]2N)[C@H](N)[C@@H](O[C@@H]2O[C@H](CO)[C@@H](O)[C@H]2O)[C@@H]1O [Compound (14β), 3'-O-(β-D-Ribofuranosyl)neamine]
MIC [1]: 1000 µg/mL (≈ 2200 µM) | Agar Diffusion Assay ([2]; Full Strength): 27 | Agar Diffusion Assay ([2]; dilution 1 : 2): 24.5 | Agar Diffusion Assay ([2]; dilution 1 : 4): 22 | Agar Diffusion Assay ([2]; dilution 1 : 8): 18 | Agar Diffusion Assay ([3]; Full Strength): 25.5 | Agar Diffusion Assay ([3]; dilution 1 : 2): 24 | Agar Diffusion Assay ([3]; dilution 1 : 4): 21 | Agar Diffusion Assay ([3]; dilution 1 : 8): 18 | Agar Diffusion Assay ([4]; Full Strength): 25 | Agar Diffusion Assay ([4]; dilution 1 : 2): 23 | Agar Diffusion Assay ([4]; dilution 1 : 4): 21 | Agar Diffusion Assay ([4]; dilution 1 : 8): 17.5 | MIC [5]: 1000 µg/mL (≈ 2200 µM) | MIC [6]: 1000 µg/mL (≈ 2200 µM) | Agar Diffusion Assay ([7]; Full Strength): 37 | Agar Diffusion Assay ([7]; dilution 1 : 2): 35.5 | Agar Diffusion Assay ([7]; dilution 1 : 4): 33 | Agar Diffusion Assay ([7]; dilution 1 : 8): 30.5 | Agar Diffusion Assay ([8]; Full strength): 25 | Agar Diffusion Assay ([8]; dilution 1 : 2): 22.5 | Agar Diffusion Assay ([8]; dilution 1 : 4): 19 | Agar Diffusion Assay ([8]; dilution 1 : 8): 15 | Agar Diffusion Assay ([9]; Full Strength): 26 | Agar Diffusion Assay ([9]; dilution 1 : 2): 22 | Agar Diffusion Assay ([9]; dilution 1 : 4): 19.5 | Agar Diffusion Assay ([9]; dilution 1 : 8): 16 | Agar Diffusion Assay ([10]; Full strength): 31 | Agar Diffusion Assay ([10]; dilution 1 : 2): 29 | Agar Diffusion Assay ([10]; dilution 1 : 4): 27 | Agar Diffusion Assay ([10]; dilution 1 : 8): 23 | MIC [11]: 1000 µg/mL (≈ 2200 µM) | MIC [12]: 1000 µg/mL (≈ 2200 µM) | MIC ([13]; Staphylococcus aureus, UC76, 20 h, S. aureus UC 76, retest table, group (7β), (14β), neamine control, read-out: Minimum Inhibitory Concentration): 1000 µg/mL (≈ 2200 µM) | active against Staphylococcus aureus ([13]; conclusion in words from the above results): active | MIC [14]: 500 µg/mL (≈ 1100 µM) | MIC [15]: 1000 µg/mL (≈ 2200 µM) | MIC [16]: 1000 µg/mL (≈ 2200 µM) | active against Bacillus cereus [17]: active | Agar Diffusion Assay ([18]; Full Strength): 20 | Agar Diffusion Assay ([18]; dilution 1 : 2): 17 | Agar Diffusion Assay ([18]; dilution 1 : 4): 14 | MIC [19]: 1000 µg/mL (≈ 2200 µM) | MIC [20]: 1000 µg/mL (≈ 2200 µM) | MIC [21]: 1000 µg/mL (≈ 2200 µM) | MIC [22]: 1000 µg/mL (≈ 2200 µM) | MIC [23]: 1000 µg/mL (≈ 2200 µM) | active against Bacillus subtilis [24]: active
